Results: US20210070748A1, “INHIBITORS OF BRUTONS TYROSINE KINASE” (Pharmacyclics LLC, priority 2015, published 2021)

Tests used:
Assay type in all cases: biochemical
BTK-WT = molecular target: T1, BTK-WT (Homo sapiens, UniProt Q06187); assay: Btk in vitro inhibitory activity (one of Method A TR-FRET, Method B electrophoretic mobility shift, Method C radiometric filter binding); details: E compounds, Table 17; read-out: IC50 BTK-WT
T1 construct: purified from insect cells as a full-length construct containing an N-terminal 6X-His tag; His6 (N); made in house; host or cells: insect cells (baculovirus Sf21 in Method B)

ITK = molecular target: T2, ITK (Homo sapiens, UniProt Q08881); assay: Inhibition of a panel of kinases, in vitro HotSpot kinase assay: ITK; details: E compounds, Table 17
T2 sequence (Q08881 1-620): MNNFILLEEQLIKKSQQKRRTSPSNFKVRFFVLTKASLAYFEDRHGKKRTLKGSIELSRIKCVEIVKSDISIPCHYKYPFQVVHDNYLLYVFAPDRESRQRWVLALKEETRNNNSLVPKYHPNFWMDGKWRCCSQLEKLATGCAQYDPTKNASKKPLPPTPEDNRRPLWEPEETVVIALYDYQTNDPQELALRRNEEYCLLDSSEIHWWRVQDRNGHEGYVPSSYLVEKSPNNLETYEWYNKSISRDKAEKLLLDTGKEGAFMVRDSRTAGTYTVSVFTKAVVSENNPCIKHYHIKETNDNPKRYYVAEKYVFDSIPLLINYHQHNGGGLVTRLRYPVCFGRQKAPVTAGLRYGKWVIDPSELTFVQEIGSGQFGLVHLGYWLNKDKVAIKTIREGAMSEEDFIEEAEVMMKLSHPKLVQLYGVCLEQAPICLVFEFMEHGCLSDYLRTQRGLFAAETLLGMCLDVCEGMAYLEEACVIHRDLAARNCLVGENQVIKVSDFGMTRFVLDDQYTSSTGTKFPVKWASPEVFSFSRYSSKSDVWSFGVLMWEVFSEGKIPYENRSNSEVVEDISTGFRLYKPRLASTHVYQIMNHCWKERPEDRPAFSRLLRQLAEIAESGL
Protocol: (§1) The degree of inhibition of a panel of kinases is determined using the in vitro HotSpot kinase assay (purified enzymes, ^33P-ATP, an appropriate substrate and 1 μM ATP).

EGFR = EGFR (Homo sapiens, UniProt P00533); assay: Inhibition of a panel of kinases, in vitro HotSpot kinase assay: EGFR; details: E compounds, Table 17
Protocol: as §1

TEC = molecular target: T3, TEC (Homo sapiens, UniProt P42680); assay: Inhibition of a panel of kinases, in vitro HotSpot kinase assay: TEC; details: E compounds, Table 17
T3 sequence (P42680 1-631): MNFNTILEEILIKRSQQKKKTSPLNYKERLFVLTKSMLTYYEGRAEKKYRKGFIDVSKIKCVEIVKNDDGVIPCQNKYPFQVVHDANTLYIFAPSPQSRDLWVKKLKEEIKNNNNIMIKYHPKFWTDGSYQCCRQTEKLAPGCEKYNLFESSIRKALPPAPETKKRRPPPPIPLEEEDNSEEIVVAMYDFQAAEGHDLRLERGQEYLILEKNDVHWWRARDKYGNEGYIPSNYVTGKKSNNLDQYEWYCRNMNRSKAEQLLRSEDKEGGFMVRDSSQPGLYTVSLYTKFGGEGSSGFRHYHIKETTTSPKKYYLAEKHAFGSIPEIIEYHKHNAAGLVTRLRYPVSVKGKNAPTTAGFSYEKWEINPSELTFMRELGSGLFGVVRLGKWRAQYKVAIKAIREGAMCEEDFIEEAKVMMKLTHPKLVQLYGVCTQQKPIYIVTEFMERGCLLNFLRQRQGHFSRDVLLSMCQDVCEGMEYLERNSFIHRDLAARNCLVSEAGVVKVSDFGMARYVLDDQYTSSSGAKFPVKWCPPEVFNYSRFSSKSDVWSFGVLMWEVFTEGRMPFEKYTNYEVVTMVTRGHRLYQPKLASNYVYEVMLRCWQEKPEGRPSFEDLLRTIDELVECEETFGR
Protocol: as §1

LCK = LCK (Homo sapiens, UniProt P06239); assay: Inhibition of a panel of kinases, in vitro HotSpot kinase assay: LCK; details: E compounds, Table 17; read-out: IC50 LCK
Sequence of LCK (P06239 whole entry): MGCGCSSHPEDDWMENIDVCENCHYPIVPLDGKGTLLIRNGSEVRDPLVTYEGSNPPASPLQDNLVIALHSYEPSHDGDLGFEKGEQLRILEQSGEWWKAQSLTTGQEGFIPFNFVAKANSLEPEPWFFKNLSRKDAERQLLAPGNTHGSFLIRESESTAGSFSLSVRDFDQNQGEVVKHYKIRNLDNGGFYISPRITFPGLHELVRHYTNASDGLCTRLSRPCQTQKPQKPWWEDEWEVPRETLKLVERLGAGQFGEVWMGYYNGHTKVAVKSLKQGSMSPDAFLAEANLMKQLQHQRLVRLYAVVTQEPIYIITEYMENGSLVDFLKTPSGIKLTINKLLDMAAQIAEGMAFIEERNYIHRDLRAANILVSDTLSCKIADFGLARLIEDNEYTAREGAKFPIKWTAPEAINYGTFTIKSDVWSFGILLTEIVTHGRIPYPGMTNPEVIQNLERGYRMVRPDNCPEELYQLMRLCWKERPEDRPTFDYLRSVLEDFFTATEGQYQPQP

T1 sequence (Q06187 whole entry): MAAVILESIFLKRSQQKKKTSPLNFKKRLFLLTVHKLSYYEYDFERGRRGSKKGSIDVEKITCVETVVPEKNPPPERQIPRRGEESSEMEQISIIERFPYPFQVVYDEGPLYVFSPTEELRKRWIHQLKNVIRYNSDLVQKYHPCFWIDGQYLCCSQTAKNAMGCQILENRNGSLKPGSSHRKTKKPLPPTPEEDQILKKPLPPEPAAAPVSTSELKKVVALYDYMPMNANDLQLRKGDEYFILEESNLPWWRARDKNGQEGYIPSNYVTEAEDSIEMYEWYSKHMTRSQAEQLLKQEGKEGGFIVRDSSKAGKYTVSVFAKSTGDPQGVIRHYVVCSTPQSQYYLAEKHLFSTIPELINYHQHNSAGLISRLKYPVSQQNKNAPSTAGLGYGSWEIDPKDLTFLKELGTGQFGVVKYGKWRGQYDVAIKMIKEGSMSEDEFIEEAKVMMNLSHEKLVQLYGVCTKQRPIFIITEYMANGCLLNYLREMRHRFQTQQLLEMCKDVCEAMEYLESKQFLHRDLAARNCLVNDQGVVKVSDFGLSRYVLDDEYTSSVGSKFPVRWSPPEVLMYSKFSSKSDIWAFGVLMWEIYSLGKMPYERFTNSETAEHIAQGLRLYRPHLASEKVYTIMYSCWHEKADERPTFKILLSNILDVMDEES
Sequence of EGFR (P00533 25-1210): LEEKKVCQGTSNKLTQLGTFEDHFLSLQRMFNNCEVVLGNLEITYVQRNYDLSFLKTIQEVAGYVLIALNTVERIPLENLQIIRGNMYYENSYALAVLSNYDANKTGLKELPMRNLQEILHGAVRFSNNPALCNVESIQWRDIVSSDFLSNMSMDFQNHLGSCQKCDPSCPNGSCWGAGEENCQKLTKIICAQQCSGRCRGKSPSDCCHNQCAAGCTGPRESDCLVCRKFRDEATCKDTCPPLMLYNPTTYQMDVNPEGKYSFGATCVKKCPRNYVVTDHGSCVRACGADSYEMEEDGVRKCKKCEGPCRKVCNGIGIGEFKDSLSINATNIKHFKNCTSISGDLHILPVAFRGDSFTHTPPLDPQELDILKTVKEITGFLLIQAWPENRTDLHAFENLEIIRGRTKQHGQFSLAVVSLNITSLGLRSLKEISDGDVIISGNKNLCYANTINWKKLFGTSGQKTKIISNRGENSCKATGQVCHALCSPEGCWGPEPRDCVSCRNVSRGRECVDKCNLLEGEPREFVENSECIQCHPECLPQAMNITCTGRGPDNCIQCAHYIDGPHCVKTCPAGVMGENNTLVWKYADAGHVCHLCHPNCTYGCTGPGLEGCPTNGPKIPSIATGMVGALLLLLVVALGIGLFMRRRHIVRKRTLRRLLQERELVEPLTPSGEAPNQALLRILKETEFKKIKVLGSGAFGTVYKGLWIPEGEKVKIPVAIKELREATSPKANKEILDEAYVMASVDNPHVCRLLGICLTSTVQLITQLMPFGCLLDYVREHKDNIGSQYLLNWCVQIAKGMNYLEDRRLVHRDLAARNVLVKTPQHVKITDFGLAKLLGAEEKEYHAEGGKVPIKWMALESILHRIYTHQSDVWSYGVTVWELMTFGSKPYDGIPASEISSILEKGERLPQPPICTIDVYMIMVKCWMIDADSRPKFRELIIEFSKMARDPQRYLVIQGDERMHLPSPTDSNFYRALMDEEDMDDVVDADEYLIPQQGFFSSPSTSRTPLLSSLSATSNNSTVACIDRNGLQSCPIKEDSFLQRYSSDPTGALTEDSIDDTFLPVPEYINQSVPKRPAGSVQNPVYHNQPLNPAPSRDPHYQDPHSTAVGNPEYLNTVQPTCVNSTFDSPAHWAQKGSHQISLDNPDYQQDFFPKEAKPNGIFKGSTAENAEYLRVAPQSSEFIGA

SMILES	IC50 (BTK-WT) [nM]	IC50 (ITK) [nM]	IC50 (EGFR) [nM]	IC50 (TEC) [nM]	IC50 (LCK) [nM]
C=CC(=O)N1CCC[C@@H](Nc2nnc(C(N)=O)c(Nc3ccc(C4(C#N)CCCC4)cc3)n2)C1 [Example E-46, (R)-3-(1-acryloylpiperidin-3-ylamino)-5-(4-(1-cyanocyclopentyl)phenylamino)-1,2,4-triazine-6-carboxamide]	≤ 10	≤ 10	≤ 10	≤ 10	
C=CC(=O)N1CCC[C@@H](Nc2nnc(C(N)=O)c(Nc3ccc(S(C)(=O)=O)cc3)n2)C1 [Example E-47, (R)-3-(1-acryloylpiperidin-3-ylamino)-5-(4-(methylsulfonyl)phenyl-amino)-1,2,4-triazine-6-carboxamide]	≤ 10	≤ 10	≤ 10	≤ 10	
C=CC(=O)N1CCC[C@@H](Nc2nnc(C(N)=O)c(Nc3cccc(-c4ncccn4)c3)n2)C1 [Example E-55, (R)-3-(1-acryloylpiperidin-3-ylamino)-5-(3-(pyrimidin-2-yl)phenylamino)-1,2,4-triazine-6-carboxamide]	≤ 10	10 to 100	10 to 100	≤ 10	
C=CC(=O)N1CCC[C@@H](Nc2nnc(C(N)=O)c(Nc3cccc(-n4nccn4)c3)n2)C1 [Example E-61, (R)-5-(3-(2H-1,2,3-triazol-2-yl)phenylamino)-3-(1-acryloylpiperidin-3-ylamino)-1,2,4-triazine-6-carboxamide]	≤ 10	10 to 100	10 to 100	≤ 10	100 to 1000
C=CC(=O)N1CCC[C@@H](Nc2nnc(C(N)=O)c(Nc3ccc(N4CCOCC4=O)cc3)n2)C1 [Example E-62, (R)-3-(1-acryloylpiperidin-3-ylamino)-5-(4-(3-oxomorpholino)phenyl-amino)-1,2,4-triazine-6-carboxamide]	≤ 10	≤ 10	10 to 100	≤ 10	
C=CC(=O)N1CCC[C@@H](Nc2nnc(C(N)=O)c(Nc3ccc(-c4nccs4)cc3)n2)C1 [Example E-63, (R)-3-(1-acryloylpiperidin-3-ylamino)-5-(4-(thiazol-2-yl)phenylamino)-1,2,4-triazine-6-carboxamide]	≤ 10	10 to 100	≤ 10	≤ 10	
C=CC(=O)N1CCC[C@@H](Nc2nnc(C(N)=O)c(Nc3ccc(-c4nn[nH]n4)cc3)n2)C1 [Example E-64, (R)-5-(4-(2H-tetrazol-5-yl)phenylamino)-3-(1-acryloylpiperidin-3-ylamino)-1,2,4-triazine-6-carboxamide]	≤ 10	10 to 100	≤ 10	≤ 10	
C=CC(=O)N[C@@H]1CCCN(c2cnc(C(N)=O)c(Nc3cnn(C)c3)n2)[C@@H]1C [Example E-98, 5-((2R,3R)-3-acrylamido-2-methylpiperidin-1-yl)-3-(1-methyl-1H-pyrazol-4-ylamino)pyrazine-2-carboxamide]	≤ 10	100 to 1000	100 to 1000	≤ 10	
C=CC(=O)N1CC[C@@H](N(C)c2cnc(C(N)=O)c(Nc3cc(C)ns3)n2)C1 [Example E-114, (R)-5-((1-acryloylpyrrolidin-3-yl)(methyl)amino)-3-(3-methylisothiazol-5-ylamino)pyrazine-2-carboxamide]	≤ 10	≤ 10		≤ 10	
C=CC(=O)N1CC[C@@H](N(C)c2cnc(C(N)=O)c(Nc3ccc(C(O)(C(F)(F)F)C(F)(F)F)cc3)n2)C1 [Example E-120, (R)-5-((1-acryloylpyrrolidin-3-yl)(methyl)amino)-3-(4-(1,1,1,3,3,3-hexafluoro-2-hydroxypropan-2-yl)phenylamino)pyrazine-2-carboxamide]	≤ 10	≤ 10		≤ 10	
CN(c1cnc(C(N)=O)c(Nc2ccc(C3CCN(C4CC4)CC3)cc2)n1)[C@@H]1CCN(C(=O)CCCl)C1 [Example E-122, (R)-5-((1-(3-chloropropanoyl)pyrrolidin-3-yl)(methyl)amino)-3-(4-(1-cyclopropylpiperidin-4-yl)phenylamino)pyrazine-2-carboxamide]	≤ 10	≤ 10		≤ 10	
C=CC(=O)N1CCC[C@@H](N(C)c2cnc(C(N)=O)c(Nc3cc(C)ns3)n2)C1 [Example E-124, (R)-5-((1-acryloylpiperidin-3-yl)(methyl)amino)-3-(3-methylisothiazol-5-ylamino)pyrazine-2-carboxamide]	≤ 10	≤ 10	10 to 100	≤ 10	

Further lines, results first:

IC50 (BTK-WT) [nM]	IC50 (ITK) [nM]	IC50 (EGFR) [nM]	IC50 (TEC) [nM]	IC50 (LCK) [nM]	SMILES
≤ 10	10 to 100		≤ 10		C=CC(=O)N1CC[C@@H](N(C)c2cnc(C(N)=O)c(Nc3cccc(-c4nccn4C)c3)n2)C1 [Example E-112, (R)-5-((1-acryloylpyrrolidin-3-yl)(methyl)amino)-3-(3-(1-methyl-1H-imidazol-2-yl)phenylamino)pyrazine-2-carboxamide]
≤ 10	10 to 100		≤ 10		C=CC(=O)N1CC[C@@H](N(C)c2cnc(C(N)=O)c(Nc3cccc(-n4nccn4)c3)n2)C1 [Example E-113, (R)-3-(3-(2H-1,2,3-triazol-2-yl)phenylamino)-5-((1-acryloylpyrrolidin-3-yl)(methyl)amino) pyrazine-2-carboxamide]
≤ 10	≤ 10	≤ 10	≤ 10		C=CC(=O)N1CC[C@@H](N(C)c2cnc(C(N)=O)c(Nc3ccc(C4CCN(C)CC4)cc3)n2)C1 [Example E-115, (R)-5-((1-acryloylpyrrolidin-3-yl)(methyl)amino)-3-(4-(1-methylpiperidin-4-yl)phenylamino)pyrazine-2-carboxamide]
≤ 10	≤ 10	10 to 100	≤ 10		C=CC(=O)N1CC[C@@H](N(C)c2cnc(C(N)=O)c(Nc3ccc(-n4nccn4)cc3)n2)C1 [Example E-116, (R)-3-(4-(2H-1,2,3-triazol-2-yl)phenylamino)-5-((1-acryloylpyrrolidin-3-yl)(methyl)amino) pyrazine-2-carboxamide]
≤ 10	≤ 10	10 to 100	≤ 10		C=CC(=O)N1CC[C@@H](N(C)c2cnc(C(N)=O)c(Nc3ccc(-c4ncccn4)cc3)n2)C1 [Example E-117, (R)-5-((1-acryloylpyrrolidin-3-yl)(methyl)amino)-3-(4-(pyrimidin-2-yl)phenylamino)pyrazine-2-carboxamide]
≤ 10	≤ 10	10 to 100	≤ 10		C=CC(=O)N1CC[C@@H](N(C)c2cnc(C(N)=O)c(Nc3ccc(-c4ncco4)cc3)n2)C1 [Example E-118, (R)-5-((1-acryloylpyrrolidin-3-yl)(methyl)amino)-3-(4-(oxazol-2-yl)phenylamino)pyrazine-2-carboxamide]
≤ 10	≤ 10	10 to 100	≤ 10		C=CC(=O)N1CC[C@@H](N(C)c2cnc(C(N)=O)c(Nc3cnn(C)c3)n2)C1 [Example E-119, (R)-5-((1-acryloylpyrrolidin-3-yl)(methyl)amino)-3-(1-methyl-1H-pyrazol-4-ylamino)pyrazine-2-carboxamide]
